Assay results published in patent US20090324616A1, “DIFFERENTIAL CYTOKINE EXPRESSION IN HUMAN CANCER” (priority 2006, published 2009).

T1: human Interleukin4 (IL4) (Homo sapiens, UniProt P05112)
T1 sequence (P05112 25-153): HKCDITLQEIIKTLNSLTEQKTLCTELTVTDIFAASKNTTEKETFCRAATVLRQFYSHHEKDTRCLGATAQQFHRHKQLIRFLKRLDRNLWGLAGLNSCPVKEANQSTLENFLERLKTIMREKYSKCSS

B1: IL-4: human recombinant IL-4 (Euroclone), used at 20 ng/ml (protein)
chain: T1 sequence (P05112 25-153)

What was measured:
[1] = tested on: Primary (adherent) cells from human colon cancer specimens; experiment: Viability of primary (adherent) colon cancer cells exposed to drugs; assay type: cell-based; details: cisplatinum 300 ng/ml, oxaliplatin 100 μM, TRAIL 200 ng/ml; FIG. 6a
Protocol: (§1) Survival and death assays. To evaluate apoptotic events the DNA staining and flow cytometry analysis were performed. The percentage of hypodiploid nuclei was evaluated as described in Stassi et al., Cancer Res. 2003, 63 (20):6784-90. Alternatively, human purified cancer cells were plated in 96-well plates in triplicate at 15,000 cells/well and cultured. The number of viable cells was detected by CellTiter Aqueous Assay Kit (Promega Corporation, WI, USA) following the instructions of manufacturer. HuT78 cells plated at […] and treated with CD95-activating antibody CH11 (200 ng/ml) were used as a positive control for cell death measurement.
(§2) To investigate the sensitivity of colon CSC to chemotherapeutic drugs, the viability of colon CSC spheroids exposed to cisplatinum (300 ng/ml) and oxaliplatin (100 μM) was measured, doses equivalent to those reached during cancer treatment in vivo. In addition, colon CSC were treated with the apoptosis-inducing death ligand TRAIL (200 ng/ml).

[2] = tested on: colon CSC; experiment: Viability of colon CSC spheroids exposed to drugs; assay type: cell-based, human; details: cisplatinum 300 ng/ml, oxaliplatin 100 μM, TRAIL 200 ng/ml, FIG. 6a
Protocol: as §1, §2

[3] = tested on: colon cancer generated by CSC; experiment: IL-4 neutralization in vivo, colon tumours generated by CSC; details: oxaliplatin i.p. once a week for 4 weeks, combined with control IgG; mice
Description: Tumours were allowed to grow for 10 days (size ˜0.2 cm^3) and then treated intra-tumourally with neutralising antibodies against IL-4 or control IgG twice a week for 3 weeks.

[4] = tested on: primary colon cancer cells; experiment: Primary colon cancer cell viability (MTS), combination with oxaliplatin; assay type: cell-based; details: 10 μg pre-treatment 24 hrs, then 100 μM oxaliplatin 24 hrs; FIG. 11C
Protocol: On primary colon cancer cells the IL4R-Fc and IL4R-IL13R-Fc constructs were tested in combination with oxaliplatin treatment. Primary colon cancer cells pre-treated with PBS (w/o) or 10 μg of IL4R-Fc, IL4R-IL13R-Fc or anti IL4-antibody for 24 hrs and successively exposed for another 24 hrs to 100 μM oxaliplatin. The graphs show the percentage of cell viability measured by MTS analysis (CellTiter 96, Aquos, Promega).

[5] = tested on: breast cancer stem cells; experiment: Apoptosis of breast cancer spheres, combination with doxorubicin; assay type: cell-based; details: 10 μg pre-treatment 24 hrs, then 5 μM doxorubicin 24 hrs; for sensitisation for doxorubicin induced apoptosis compared with IL-4 specific antibody (positive control): FIG. 11B; for amount of apoptotic breast cancer stem cells: compared with Doxorubicin alone, FIG. 11A
Protocol: To test for the ability of IL4R-Fc and IL4R-IL13R-Fc to induce apoptosis, both proteins were added to the growth medium of breast cancer stem cells either alone or in combination with doxorubicin. […] The cells were stained with orange acridine/ethidium bromide (red: dead cells; green: viable cells).

[6] = molecular target: T1, human Interleukin4 (IL4); experiment: IL-4-pull down assay; assay type: binding; details: 4 μg protein immobilized to Streptactin Sepharose, 400 ng IL4, 60 min; FIG. 10
Protocol: To test for specific IL-4 binding of IL4R-Fc and IL4R-IL13R-Fc, 4 μg of both proteins, respectively, were immobilized to Streptactin Sepharose via their Strep-Tag. The immobilized proteins were subsequently incubated for 60 min with 400 ng of recombinantly expressed human Interleukin4 (IL4) in a total volume of 400 μl phosphate buffered saline. Subsequently the beads were washed and bound proteins were specifically eluted with desthiobiotin in a total volume of 40 μl elution buffer. Eluted proteins were finally analysed via SDS-PAGE and Silver staining.

[7] = tested on: cFLIP, PED/PEA-15, Bcl-xL and Bcl-2 in normal colon, breast, gastric and lung cells; experiment: Anti-apoptotic protein expression in normal cells pre-incubated with IL-4; assay type: cell-based, human; details: gastric and lung cells pre-incubated with IL-4, FIG. 3c
Protocol: (§3) Human primary cell purification. Normal and cancer tissues were digested for 2 hours with collagenase (1.5 mg/ml) (Gibco BRL., Grand Island, N.Y.) and hyaluronidase (20 μg/ml) (Sigma Chemical Co., St. Louis, Mo.) as previously described (1). Once digested, cells were maintained on plastic in DMEM medium (EuroClone Ltd., West York, UK) at 37° C. in a humidified atmosphere of 5% CO2. Following 12 further hours of culture, cancer cells were allowed to grow in monolayer for the immunocytochemistry or detached with trypsin+EDTA for functional, protein expression and gene transcript levels analyses. For colon and gastric cells culture, plastic was coated with[…] of collagen (Calbiochem GmbH, Darmstadt, Germany). […]
Protein isolation and western blotting analysis. […] Immunoblotting of Abs specific for actin (Ab-1, mouse IgM, Calbiochem, Darmstadt, Germany), CD95L (G2474, mouse IgG1, PharMingen, San Diego), CD95 (C-20, Santa Cruz Biotechnology), cFLIP (NF6 mouse IgG1, Alexis Biochemicals, Switzerland), PED/PEA-15 (rabbit IgG kindly provided by G. Condorelli), Bcl-2 (124, mouse IgG1, Upstate Biotechnology Inc.) and Bcl-XI (H-5, mouse IgG1, Santa Cruz Biotechnology) was detected by HRP-conjugated anti-mouse or anti-rabbit Abs (Amersham Biosciences UK Limited, England) and visualized with the chemiluminescence detection system (SuperSignal West Dura Extended duration Substrate, Pierce, Ill., USA). […]

[8] = tested on: colon, breast, gastric and lung normal cells; experiment: Cell growth of normal cells exposed to IL-4; assay type: cell-based, human; details: 20 ng/ml of IL-4; FIG. 3b
Protocol: as §3
Survival and death assays. […] The percentage of hypodiploid nuclei was evaluated as described in Stassi et al., Cancer Res. 2003, 63 (20):6784-90. […] The number of viable cells was detected by CellTiter Aqueous Assay Kit (Promega Corporation, WI, USA) following the instructions of manufacturer. […]
In order to investigate the possible involvement of IL-4 on tumour cell survival, colon, breast, gastric and lung normal cells were exposed to 20 ng/ml of IL-4 and analyzed for cell growth.

binding of human IL-4 (pull down, SDS-PAGE and Silver staining) [6]	Molecule	sensitivity in vitro (viability) [1]	sensitivity to drug-induced apoptosis (viability) [2]	cell viability (MTS) in comparison with oxaliplatin treatment alone [4]	sensitisation for doxorubicin induced apoptosis compared with IL-4 specific antibody (positive control) [5]	amount of apoptotic breast cancer stem cells [5]	further results
–	N.N.[Cl][Pt][Cl] [cisplatinum]	some sensitivity	significantly resistant	–	–	–	–
–	O=C1[O][Pt]2([NH][C@@H]3CCCC[C@H]3[NH]2)[O]C1=O [oxaliplatin]	some sensitivity	significantly resistant	–	–	–	tumour size [3]: reduced tumour size
specific binding	IL4R-Fc: shortened extracellular domain of IL-4-Receptor-alpha (aa1-aa224) fused to the Fc-part of human IGHG1, with Flexstreptag-II	–	–	reduced cell viability	in the same range	clearly increased	–
specific binding	IL4R-IL13R-Fc: IL-4-Receptor-alpha extracellular domain fused to IL13-receptor alpha extracellular domain and Fc-part of human IGHG1, with Flexstreptag-II	–	–	reduced cell viability	in the same range	clearly increased	–
–	TRAIL	some sensitivity	significantly resistant	–	–	–	–
–	B1	–	–	–	–	–	protein levels of cFLIP, PED/PEA-15, Bcl-xL and Bcl-2 [7]: increased; growth rate of colon, breast and lung normal cells [8]: significantly increased
